Legend:
Drosophila melanogaster [1] = assay: dual choice trapping cage assay with commercial fruit fly traps and lure (TERRO); format: in vivo; settings: 24 hours
Description: FIG. 7A is a schematic drawing showing a design for a dual choice free flight cage trapping assay used to determine the effect of nonanal on the trapping of fruit flies (Drosophila melanogaster) when used in combination with a commercial fruit fly lure. Inside a 30 centimeter (cm) by 30 cm cage are placed two commercial fruit fly traps. Inside each commercial fruit fly trap is placed 1 milliliter (mL) of a commercial fruit fly lure. In addition, in one trap (Trap 1) is placed a 1.5 mL vial containing 50 microliters (μL) dimethyl sulfoxide (DMSO), while in the other trap (Trap 2) is placed a 1.5 mL vial containing 50 μL of a solution of nonanal in DMSO. For each experiment 40 to 120 fruit flies are used. The attraction of starved Drosphila melanogaster males and females to a commercial lure and trap to which various amounts of nonanal were added is shown in FIG. 7B. In all experiments, 40 to 120 3-4 day old, 24 hours starved flies (males and females) were given a choice between two commercial fruit fly traps (sold under the tradename TERRO® traps; Model #BT2502; Senoret Chemicals Co., Inc., Lititz, Pennsylvania, United States of America). […] After 24 hours, flies in both traps were counted. […] After 24 hours, flies in both traps were counted.

[2] = test system: male corn earworm (CEW, Helicoverpa zea); assay: field trapping of male CEW in Hartstack traps, nonanal and/or 1-hexanol; format: in vivo; settings: for effectiveness in trapping male CEW, without commercial pheromone lure: 0.5% w/w level, without the commercial pheromone lure, sorghum or corn fields; for effectiveness of commercial lure in trapping male CEW when combined: 0.5% w/w with major component of commercial pheromone lure, used in combination with the commercial lure
From the text: FIG. 11 is a graph showing the results of a field trapping study of male com earworm (CEW, Helicoverpa zea) using traps containing a dispenser containing a solution of 0.5% nonanal and/or 0.5% 1-hexanol alone or also containing a dispenser for a commercial CEW sex pheromone lure. Effectiveness is reported as number of male CEW capture per day per trap.
To determine the effects of 1-hexanol and combinations of 1-hexanol and nonanal, Hartstack traps with or without the commercial CEW sex pheromone lure and with or without one or both of nonanal and 1-hexanol were placed in sorghum or corn fields. Nonanal and 1-hexanol, if present, were present at 0.5% on a weight to weight basis with the major component of the commercial pheromone lure.

Musca domestica = assay: dual choice trapping cage assay with commercial fly trap attractant (STARBAR); format: in vivo; settings: 24 hours
From the text: FIG. 8A is a schematic drawing showing a design for a dual choice free flight cage trapping assay used to determine the effect of nonanal on the trapping of house flies (Musca domestica) when used in combination with a commercial house fly lure. At the right of the drawing is shown a schematic of a 30 centimeter (cm) by 30 cm cage containing two commercial house fly traps (Trap 1 and Trap 2), each including a plastic cup fitted with a transparent lid that has an opening for the flies. An enlarged view of an individual trap is shown to the left side of the drawing. Inside each trap, at the bottom, is placed a commercial fly attractant as a lure. In addition, each trap is fitted with a 1.5 mL vial containing either 50 microliters (μL) dimethyl sulfoxide (DMSO) or 50 μL of a solution of nonanal in DMSO. For each experiment, 20 house flies are used.
The attraction of fed Musca domestica males and females to a commercial lure and a laboratory-built trap to which various amounts of nonanal were added is shown in […]. […] After 24 hours, house flies in both traps were counted. […]
The other trap in the dual choice trapping assay contained 50 mL of the commercial fly trap attractant lure plus a 50 μl of DMSO only. […] After 24 hours, flies in both traps were counted.

[3] = test system: male corn earworm (CEW, Helicoverpa zea); assay: field trapping of male CEW in Hartstack traps, nonanal dose study; format: in vivo
Description: FIG. 10C is a graph showing the effectiveness of different doses of nonanal in field trapping of male corn earworm (CEW, Helicoverpa zea) using a commercial sex pheromone lure with different doses of nonanal. Effectiveness is measured as the number of male CEW captured per trap per day. The data for the two bars on the left are from traps with no commercial pheromone dispenser, while the data for the six bars on the right are from traps with the commercial pheromone dispenser in combination with the dispenser containing either paraffin oil alone (0 percent (%) nonanal) or a paraffin oil solution comprising 0.5% to 8% nonanal (weight to weight relative to the amount of the main component of the commercial sex pheromone).
Some of the traps also contained, adjacent to the glass vials, a lure comprising a rubber septum formulated with the commercial CEW sex pheromone. Assuming that the commercial pheromone lure contained about 2 mg of the major component (i.e., (Z)-11-hexadecenal), the solutions in the glass vials were prepared to contain various amounts (0%, 0.5%, 1%, 2%, 4%, or 8%) of nonanal on a weight to weight basis with the (Z)-11-hexadecenal.

male CEW antenna = assay: GC-EAD of female sex pheromone gland extract on male CEW antenna; parameters: species or system Helicoverpa zea; settings: compound present in CEW female sex pheromone gland extract
Description: Based on the finding that nonanal attracts male CEW in laboratory and field behavioral studies, and as described hereinbelow, a study of the female sex pheromone gland extract of Helicoverpa zea was performed using a gas chromatography-electroantennograom detector (GC-EAD), a device that couples a GC to an insect antenna, the olefactory organ of insects that serves as a biological detector. In this device, the GC separates chemicals in a mixture and presents them to the antenna, and its electrophysiological responses reveal which chemicals it senses. […]
The sex pheromone glands of multiple CEW females were dissected and the contents extracted with hexane. […] In parallel to the GC, the electrophysiological response of the antenna is recorded to identify the active compounds. […] Gland extracts were also analyzed using gas chromatography-mass spectrometry (GC-MS) (6890 GC and 5975 MS, Agilent Technologies, Palo Alto, California, United States of America) The GC-MS was operated in pulsed splitless mode (15 psi for 0.5 min, then 6 psi) and equipped with a DB-WAXetr column (30 m×0.25 mm, df=0.25 μm, Agilent Technologies, Palo Alto, California, United States of America), and helium was used as the carrier gas at an average velocity of 34 cm/s. […]

Drosophila melanogaster [4] = assay: dual choice free flight cage trapping assay with glass vial traps (water or balsamic vinegar); format: in vivo; settings: 24 hours
From the text: FIG. 4 is a schematic drawing showing a design for a dual choice free flight cage trapping assay used herein to determine the effect of nonanal on trapping fruit flies (Drosophila melanogaster). A 13 centimeter (cm) by 19 cm by 9.5 cm cage with a mesh opening on the top is equipped with two glass 5.5 cm by 2.5 cm glass vial traps, each equipped with a lid fitted with a truncated pipette tip. At the bottom of each glass vial trap is either water or a fermentation attractant (i.e., balsamic vinegar). Inside each glass vial trap is another smaller glass vial containing either a solution of nonanal in dimethyl sulfoxide (DMSO) or a DMSO without nonanal. The attraction of starved Drosphila melanogaster males and females to balsamic vinegar (Bellino, Cento Fine Foods, Deptford, New Jersey, United States of America) with and without 1 μg nonanal was studied in a dual choice trapping assay. Nonanal was placed in a glass vial, separately from the balsamic vinegar, but adjacent to it. In all experiments, 20 3-4 day old, 24 hours starved flies (males and females) were given a choice between two traps. […] After 24 hours, flies in both traps were counted. Various amounts of nonanal were dissolved in DMSO, and then 10 μl of nonanal DMSO solution were placed in a separate glass vial (12×32 mm, Thermo Fisher Scientific. Waltham, Massachusetts, United States of America) adjacent to 0.4 ml of water in one trap. The other trap in the dual choice trapping assay contained 0.4 ml of water plus a separate vial containing 10 μl of DMSO. Twenty 3-4 day old, 24 hours starved flies (males and females) were given a choice between the two traps. After 24 hours, flies in both traps were counted. […] N=10. […] The attraction of starved Drosphila melanogaster males and females to balsamic vinegar to which various amounts of nonanal were added is shown in FIG. 6. Various amounts of nonanal were dissolved in DMSO, and then 10 μl of nonanal DMSO solution were placed in a separate glass vial adjacent to 0.4 ml of balsamic vinegar in one trap. […] After 24 hours, flies in both traps were counted. […]

| Structure (SMILES) | flies trapped, nonanal trap versus trap without nonanal (Drosophila melanogaster [1]; increasing amount of nonanal in 50 μl DMSO with 1 mL commercial fruit fly lure, other trap lure plus DMSO) | attraction of flies to commercial fruit fly lure at too much nonanal (Drosophila melanogaster [1]; too much nonanal in 50 μl DMSO with 1 mL commercial fruit fly lure) | effectiveness in trapping male CEW, without commercial pheromone lure [2] | effectiveness of commercial lure in trapping male CEW when combined [2] | house flies trapped, nonanal trap versus trap without nonanal (Musca domestica; increasing amount of nonanal in 50 μl DMSO with 50 mL commercial fly trap attractant lure, other trap lure plus DMSO, fed flies) | attraction of house flies to commercial fly trap attractant lure at too much nonanal (Musca domestica; too much nonanal in 50 μl DMSO with 50 mL commercial fly trap attractant lure) | trap effectiveness with commercial CEW sex pheromone ([3]; e.g. 0.5% to 4% nonanal (w/w to (Z)-11-hexadecenal) added to trap with commercial CEW sex pheromone) | effectiveness in capturing male CEW, no commercial pheromone ([3]; traps containing only nonanal in paraffin oil, no commercial CEW sex pheromone lure) | EAD response of the antenna (male CEW antenna) | attraction of flies to balsamic vinegar at highest amount of nonanal (Drosophila melanogaster [4]; highest amount of nonanal (1000 μg) in DMSO adjacent to balsamic vinegar) | flies trapped, nonanal trap versus trap without nonanal (Drosophila melanogaster [4]; increasing amount of nonanal (e.g., 1 μg) in DMSO in vial adjacent to 0.4 ml balsamic vinegar, other trap balsamic vinegar and DMSO) | flies trapped, nonanal trap versus trap without nonanal (Drosophila melanogaster [4]; nonanal at various concentrations in DMSO (10 μl) in vial adjacent to 0.4 ml water, other trap water and DMSO only, starved males and females) |
| --- | --- | --- | --- | --- | --- | --- | --- | --- | --- | --- | --- | --- |
| CCCCCCCCC=O [nonanal] | more flies are trapped | interferes with attraction of flies to the commercial fruit fly lure | not effective in trapping male CEW | improved its effectiveness | more house flies are trapped | interferes with attraction of flies to the commercial fly trap attractant lure | increased the trap effectiveness | not effective in capturing male CEW | elicit an EAD response in the antenna | interferes with attraction of flies to balsamic vinegar | more flies are trapped | does not trap any more flies than traps containing water and DMSO only |
| CCCCCCO [1-hexanol] |  |  | not effective in trapping male CEW | improved its effectiveness |  |  |  |  | elicit an EAD response in the antenna |  |  |  |

Reference: patent US20250295109A1, “UNIVERSAL SYNERGIST FOR INSECT ATTRACTANTS” (North Carolina State University, priority 2022, published 2025)
